In ChEMBL document CHEMBL1201862, “PubChem BioAssay data set” (2004):
Activity calls are given as the source filed them.

Columns and labels:
[1] = target: DNA (cytosine-5)-methyltransferase 1 (Homo sapiens, UniProt P26358); assay: inhibition of DNA methylation by DNMT1 – biochemical, fluorescent molecular beacon, confirmation (AID 602386); type: functional
[2] = target: T1, Lysine-specific demethylase 4A (Homo sapiens, UniProt O75164); assay: inhibition of JMJD2A H3K9me3 demethylation – biochemical, DELFIA europium, cherry-picked samples, selectivity assay for GASC-1 inhibitor project, dose response (AID 488840)
T1 sequence (O75164 whole entry): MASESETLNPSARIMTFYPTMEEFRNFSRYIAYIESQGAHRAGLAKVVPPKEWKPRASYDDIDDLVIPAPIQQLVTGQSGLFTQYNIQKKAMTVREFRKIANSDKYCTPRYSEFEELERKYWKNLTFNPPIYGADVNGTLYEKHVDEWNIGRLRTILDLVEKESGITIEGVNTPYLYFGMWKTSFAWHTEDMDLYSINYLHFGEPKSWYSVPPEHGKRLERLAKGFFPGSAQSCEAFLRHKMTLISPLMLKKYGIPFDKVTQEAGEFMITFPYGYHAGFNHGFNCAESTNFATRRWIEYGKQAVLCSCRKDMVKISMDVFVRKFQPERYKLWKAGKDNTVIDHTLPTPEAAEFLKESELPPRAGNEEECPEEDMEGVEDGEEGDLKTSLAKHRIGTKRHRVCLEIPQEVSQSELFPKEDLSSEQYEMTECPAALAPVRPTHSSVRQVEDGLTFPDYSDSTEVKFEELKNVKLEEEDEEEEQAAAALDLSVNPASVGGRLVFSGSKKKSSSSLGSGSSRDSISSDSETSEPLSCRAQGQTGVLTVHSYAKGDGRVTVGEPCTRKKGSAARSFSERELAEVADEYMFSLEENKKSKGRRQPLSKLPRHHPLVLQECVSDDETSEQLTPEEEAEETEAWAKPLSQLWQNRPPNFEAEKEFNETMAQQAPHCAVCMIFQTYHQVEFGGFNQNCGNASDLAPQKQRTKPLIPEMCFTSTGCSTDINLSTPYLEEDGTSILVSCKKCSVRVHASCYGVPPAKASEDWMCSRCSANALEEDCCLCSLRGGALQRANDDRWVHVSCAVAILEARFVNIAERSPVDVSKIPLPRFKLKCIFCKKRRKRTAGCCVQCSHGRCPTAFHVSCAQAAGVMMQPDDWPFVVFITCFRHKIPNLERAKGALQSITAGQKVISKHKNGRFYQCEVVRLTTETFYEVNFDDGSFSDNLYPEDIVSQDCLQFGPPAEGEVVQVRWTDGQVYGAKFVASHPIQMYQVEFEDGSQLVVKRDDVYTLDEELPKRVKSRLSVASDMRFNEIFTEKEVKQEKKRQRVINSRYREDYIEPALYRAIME

[3] = viability of PTEN-deleted HCT116 cells – cell-based, HCT116 PTEN knockout, dose response (AID 1047); type: functional;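 note: HCT116 colon tumor cells with PTEN knocked out; cells exposed to compound for 60 hours before readout; potency for loss of cell viability measured by luminescence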
[4] = viability of HCT116 lacking mutant beta-catenin – cell-based, human colon tumor, dose response (AID 1045); type: functional;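 note: HCT116 colon tumor cells with beta catenin knocked out; cells exposed to compound for 60 hours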
Estrogen receptor beta = Estrogen receptor beta (Homo sapiens, UniProt Q92731);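 note: recombinant ER-beta bound to coactivator SRC1 peptide in presence of estradiol agonist; inhibitors block coactivator peptide binding and lower the FRET signal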
Estrogen receptor beta, sequence (Q92731 whole entry): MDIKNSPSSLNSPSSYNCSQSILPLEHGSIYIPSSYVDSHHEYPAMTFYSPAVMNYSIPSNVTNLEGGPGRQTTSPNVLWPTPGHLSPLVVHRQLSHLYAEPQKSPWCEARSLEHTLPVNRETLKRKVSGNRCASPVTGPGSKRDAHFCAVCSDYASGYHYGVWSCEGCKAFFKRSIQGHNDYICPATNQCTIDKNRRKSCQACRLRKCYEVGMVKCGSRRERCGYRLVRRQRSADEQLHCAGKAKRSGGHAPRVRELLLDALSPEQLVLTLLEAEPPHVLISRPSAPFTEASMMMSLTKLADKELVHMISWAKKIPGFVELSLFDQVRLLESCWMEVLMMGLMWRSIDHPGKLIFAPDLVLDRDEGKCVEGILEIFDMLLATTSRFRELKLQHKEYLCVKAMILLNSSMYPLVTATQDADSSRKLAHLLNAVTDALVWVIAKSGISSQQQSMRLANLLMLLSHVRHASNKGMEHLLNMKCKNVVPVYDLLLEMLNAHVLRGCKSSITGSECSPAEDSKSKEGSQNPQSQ

14-3-3 protein gamma = 14-3-3 protein gamma (Homo sapiens, UniProt P61981); assay: modulators of 14-3-3 gamma client binding – dose response (AID 711); type: functional
14-3-3 protein gamma, sequence (P61981 whole entry): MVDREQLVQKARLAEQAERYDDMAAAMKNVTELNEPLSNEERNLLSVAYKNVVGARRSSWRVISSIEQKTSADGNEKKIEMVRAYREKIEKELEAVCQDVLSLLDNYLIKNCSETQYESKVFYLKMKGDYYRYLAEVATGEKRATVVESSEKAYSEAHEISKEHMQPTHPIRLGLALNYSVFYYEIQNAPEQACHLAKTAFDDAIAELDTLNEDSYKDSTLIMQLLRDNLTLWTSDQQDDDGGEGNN

[5] = target: UDP-galactopyranose mutase (Mycobacterium tuberculosis, UniProt P9WIQ1); assay: Inhibitors of Mycobacterium tuberculosis UDP-galactopyranose mutase (UGM) enzyme Measured in Biochemical System Using Plate Reader - 2105-02_Inhibitor_Dose_CherryPick_Activity. [Related pubchem assays (depositor defined):AID504439]
UDP-galactopyranose mutase, sequence (P9WIQ1 whole entry): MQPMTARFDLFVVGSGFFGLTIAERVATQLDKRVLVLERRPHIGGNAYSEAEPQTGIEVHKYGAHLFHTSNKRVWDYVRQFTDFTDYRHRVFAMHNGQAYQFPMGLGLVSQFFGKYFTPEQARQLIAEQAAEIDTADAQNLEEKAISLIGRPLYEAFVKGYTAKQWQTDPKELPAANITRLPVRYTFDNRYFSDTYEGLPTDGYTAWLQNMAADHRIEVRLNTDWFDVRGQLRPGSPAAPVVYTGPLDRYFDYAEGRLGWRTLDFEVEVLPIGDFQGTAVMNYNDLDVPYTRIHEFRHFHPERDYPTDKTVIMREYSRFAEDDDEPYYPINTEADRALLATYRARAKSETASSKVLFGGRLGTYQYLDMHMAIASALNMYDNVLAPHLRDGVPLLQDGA

BJ = assay: BJ-TERT fibroblast viability loss – cell-based, RAS-independent, luminescence, dose response (AID 1933); type: functional; conditions: Homo sapiens
[6] = fluconazole-exposed Candida albicans growth modulators – fluorescence, retest, confirmation (AID 2467); type: functional, cell-based
[7] = target: T2, Tyrosine-protein phosphatase non-receptor type 22 (Homo sapiens, UniProt Q9Y2R2); assay: SAR LYP1 Fluorescent Assay using OMFP substrate for In Vitro dose response studies - Set 2. [Related pubchem assays (depositor defined):AID1779, AID1784, AID2140, AID449726, AID488869]; type: functional
T2 sequence (Q9Y2R2 whole entry): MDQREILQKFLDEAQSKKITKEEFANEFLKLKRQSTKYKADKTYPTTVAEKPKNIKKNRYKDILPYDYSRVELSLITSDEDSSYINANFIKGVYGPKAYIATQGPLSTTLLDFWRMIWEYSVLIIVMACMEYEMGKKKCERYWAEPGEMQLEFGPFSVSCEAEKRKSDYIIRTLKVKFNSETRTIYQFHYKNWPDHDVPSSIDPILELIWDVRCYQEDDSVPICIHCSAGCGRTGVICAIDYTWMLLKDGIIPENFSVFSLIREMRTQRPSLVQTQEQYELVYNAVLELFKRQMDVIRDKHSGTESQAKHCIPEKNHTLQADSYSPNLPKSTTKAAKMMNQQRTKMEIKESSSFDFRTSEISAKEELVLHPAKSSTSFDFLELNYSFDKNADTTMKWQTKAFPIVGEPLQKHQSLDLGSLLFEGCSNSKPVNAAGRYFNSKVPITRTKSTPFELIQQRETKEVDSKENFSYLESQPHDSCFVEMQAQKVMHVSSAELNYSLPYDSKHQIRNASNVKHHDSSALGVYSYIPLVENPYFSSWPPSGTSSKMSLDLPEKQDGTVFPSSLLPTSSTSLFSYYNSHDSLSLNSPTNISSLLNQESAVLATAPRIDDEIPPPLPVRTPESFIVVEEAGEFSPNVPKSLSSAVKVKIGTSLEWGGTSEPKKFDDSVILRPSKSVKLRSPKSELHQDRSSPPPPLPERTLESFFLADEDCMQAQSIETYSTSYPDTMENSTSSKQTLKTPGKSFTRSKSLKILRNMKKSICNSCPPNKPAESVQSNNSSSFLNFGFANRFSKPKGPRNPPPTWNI

[8] = target: T2, Tyrosine-protein phosphatase non-receptor type 22; assay: SAR LYP1 Fluorescent Assay using pCAP substrate for In Vitro dose response studies - Set 4. [Related pubchem assays (depositor defined):AID1779, AID1784]; type: functional
[9] = target: T2, Tyrosine-protein phosphatase non-receptor type 22; assay: SAR LYP1 Fluorescent Assay using OMFP substrate for In Vitro dose response studies - Set 4. [Related pubchem assays (depositor defined):AID1779, AID1784, AID2140, AID2686]; type: functional
[10] = target: Voltage-gated N-type calcium channel alpha-1B subunit/Amyloid beta A4 precursor protein-binding family A member 1 (Homo sapiens, UniProt Q00975+Q02410); type: protein assay
[11] = target: T2, Tyrosine-protein phosphatase non-receptor type 22; assay: SAR LYP1 Fluorescent Assay using pCAP substrate for In Vitro dose response studies - Set 2. [Related pubchem assays (depositor defined):AID1779, AID1784, AID2135, AID449727]; type: functional
Troponin, cardiac muscle = Troponin, cardiac muscle (Homo sapiens, UniProt P19429+P45379+P63316); assay: compounds desensitizing RTF to calcium – biochemical, fluorescence, cardiac regulated thin filaments, triplicate IC50, dose response (AID 504742); type: protein-complex assay

DNA (cytosine-5)-methyltransferase 1, sequence (P26358 whole entry): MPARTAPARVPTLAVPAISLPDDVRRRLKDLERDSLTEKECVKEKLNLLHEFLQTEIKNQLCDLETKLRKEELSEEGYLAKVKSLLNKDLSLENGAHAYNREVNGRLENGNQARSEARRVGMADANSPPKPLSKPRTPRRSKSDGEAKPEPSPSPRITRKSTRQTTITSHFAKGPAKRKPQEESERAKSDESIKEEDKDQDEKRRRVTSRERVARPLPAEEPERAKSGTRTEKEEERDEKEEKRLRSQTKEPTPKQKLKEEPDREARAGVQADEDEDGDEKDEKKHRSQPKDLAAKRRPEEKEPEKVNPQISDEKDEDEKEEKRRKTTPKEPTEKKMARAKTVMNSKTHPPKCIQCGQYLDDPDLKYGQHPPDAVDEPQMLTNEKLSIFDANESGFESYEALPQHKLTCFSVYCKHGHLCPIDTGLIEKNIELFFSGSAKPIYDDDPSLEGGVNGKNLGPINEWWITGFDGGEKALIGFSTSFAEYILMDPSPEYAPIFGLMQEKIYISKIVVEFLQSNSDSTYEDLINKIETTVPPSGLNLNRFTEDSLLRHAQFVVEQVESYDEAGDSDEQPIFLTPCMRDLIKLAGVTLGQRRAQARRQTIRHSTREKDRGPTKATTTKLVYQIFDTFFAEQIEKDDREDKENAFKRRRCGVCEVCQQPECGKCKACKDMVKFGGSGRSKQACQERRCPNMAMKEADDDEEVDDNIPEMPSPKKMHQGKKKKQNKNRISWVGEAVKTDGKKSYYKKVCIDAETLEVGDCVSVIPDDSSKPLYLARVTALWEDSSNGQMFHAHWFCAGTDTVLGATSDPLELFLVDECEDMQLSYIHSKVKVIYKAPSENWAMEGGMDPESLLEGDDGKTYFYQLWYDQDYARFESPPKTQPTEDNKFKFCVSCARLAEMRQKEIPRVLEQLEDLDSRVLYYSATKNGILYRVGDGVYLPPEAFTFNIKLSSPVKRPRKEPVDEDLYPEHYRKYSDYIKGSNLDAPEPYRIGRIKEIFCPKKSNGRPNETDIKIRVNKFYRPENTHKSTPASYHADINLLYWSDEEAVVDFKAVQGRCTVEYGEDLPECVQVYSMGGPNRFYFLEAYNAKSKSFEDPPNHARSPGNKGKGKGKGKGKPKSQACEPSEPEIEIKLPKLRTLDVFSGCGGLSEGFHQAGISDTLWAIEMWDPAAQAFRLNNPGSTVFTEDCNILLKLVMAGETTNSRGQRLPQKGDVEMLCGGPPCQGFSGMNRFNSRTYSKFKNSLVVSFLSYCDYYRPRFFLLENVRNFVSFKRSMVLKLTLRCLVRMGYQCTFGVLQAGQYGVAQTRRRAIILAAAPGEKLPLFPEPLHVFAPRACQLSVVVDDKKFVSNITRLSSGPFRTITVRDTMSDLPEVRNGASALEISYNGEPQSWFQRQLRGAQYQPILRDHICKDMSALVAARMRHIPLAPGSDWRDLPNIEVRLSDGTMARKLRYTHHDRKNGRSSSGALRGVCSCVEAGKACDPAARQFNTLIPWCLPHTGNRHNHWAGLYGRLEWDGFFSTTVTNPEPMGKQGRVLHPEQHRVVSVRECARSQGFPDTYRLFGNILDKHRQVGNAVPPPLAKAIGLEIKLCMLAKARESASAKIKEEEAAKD

In the case of `CSc1ccc(C=NNc2ccc(S(=O)(=O)Nc3ccccc3C(=O)O)cc2[N+](=O)[O-])cc1`, the IC50 [1] is reported as 3.26 µM (active) and the AC50 [2] is reported as 12.4 µM (active).

In the case of `Cc1oc2c(c1C(=O)c1ccccc1)C(=O)C(=O)c1ccccc1-2`, the EC50 [3] is reported as 2.64 µM (active) and the EC50 [4] is reported as 2.26 µM (active).

With `COc1ccc(C(=O)Nc2nc3c(s2)Cc2cc(OC)ccc2-3)cc1` the IC50 (Estrogen receptor beta) was > 50 µM (not active).

With `O=C1CCCC2=C1C1(O)C(=O)c3ccccc3C1(O)O2` (stereo not given) the IC50 (14-3-3 protein gamma) was > 50 µM (not active).

In the case of `Nc1ccc2nc3c(O)nc(S)nc3nc2c1`, the AC50 [5] is reported as 3.57 µM (active).

In the case of `CCN1/C(=C/c2ccc3cc(C)ccc3[n+]2CC)Sc2cc(C)c(C)cc21`, the EC50 (BJ) is reported as 0.337 µM (inconclusive) and the EC50 [6] is reported as < 0.03 µM (active).

For `O=C(O)COc1ccc(/C=N/NC(=O)c2ccc(-c3csc(Nc4ccc(Cl)cc4)n3)cc2)cc1`, the IC50 [7] was 1.24 µM (active), the IC50 [8] was 0.527 µM (active) and the IC50 [9] was 1.47 µM (active). The IC50 [10] was 10.1 µM (active), the IC50 [11] was 0.249 µM (active) and the IC50 (Troponin, cardiac muscle) was > 71.5 µM (inactive).
